Test results from patent US20160208249A1, “Compositions and Methods for Inducing Senescence in Cancer Cells” (INSERM (Institut National de la Sante et de la Recherche …, priority 2013, published 2016).

Key:
NF-kB = NF-kB luciferase reporter activity in melanoma cells; type: cell-based, human; settings: A375, 4 days; PGJ2 1.5 μM, Bay 11-7082 2 μM, sulfasalazine 50 μM (FIG. 8A)
Description: Cells were transfected with NF-kB-luciferase reporter (NF-kB-Luc, Qiagen Germantown Md.) sensitive to overall NF-kB activation and with CMV promoter b-Galactosidase (pCMVβGal) for normalization purpose. Lipofectamine 2000 (Invitrogen, Carlsbad, Calif.) was used as transfection agent. 48 hrs post transfection, luciferase activity was tested using the luciferase assay system kit (Promega) and measured with the Clarity Luminescence Microplate Reader (Bio-Tek Instruments, Winooski, Vt.).
For gene reporter activity post gene silencing using RNA interference, cells were first transfected with SiRNAs according to experimental design using as transfecting agent Lipofectamine RNAimax as previously described. 24 hrs post transfection cells were again transfected using EZH2 promoter Renilla construct or NF-kB-luciferase reporter and pCMVβGal. 48 hrs after addition of the reporter plasmid, cells were harvested and luciferase or Renilla activity measured as above mentioned.

EZH2 [1] = assay: qRT-PCR analysis of EZH2 mRNA in A375 cells; type: cell-based, human; settings: for EZH2 mRNA: A375 cells treated for 3 days (FIG. 1B)
Description: Transfection experiments with Small interfering RNAs (siRNAs): Typically 30 000 to 50 000 cells were plated in 6-well culture plates and transfected 24 hours later with 25 nM or 50 nM siRNAs using Lipofectamine RNAimax (Invitrogen) according to manufacturer protocol. If not otherwise described cells were incubated with the si-RNA for 4 days prior harvesting for further experiments. […] As non specific control, a scramble sequence siRNA was used (cat. 16106, Ambion, Life Technologies, Grand Island, N.Y.).
(§1) Quantitative RT-PCR analysis: Total RNA was isolated from cells using RNAeasy minikit (Qiagen) according to manufacturer's procedure. Reverse transcription was performed using AMV reverse transcription system (Promega) while quantitative PCR was performed with Power Sybr green (Applied biosystem, Life Technologies, Grand Island, N.Y.) following manufacturer instructions (List of primers are available in supplementary information). PCR reaction was carried on a Step One plus Real-Time PCR system (Applied Biosystems). All analyses were done in triplicate and melting curve analysis was performed to control for product quality and specificity. Expression levels were calculated using the comparative method of relative quantification, with SB34 as normalizer. Data were analyzed for their statistical significance applying Student's t-test. Results are presented as mean±SEM relative to the control.
(§2) Transcription Factor Decoys (TFD) preparation and treatment. Double stranded TFDs were obtained by annealing at 95 C two complementary single stranded oligos (purchased from Invitrogen). TFDs were designed by copying the NF-kB2 sequences discovered on the EZH2 promoter (i.e. p52 decoy referred as and TFD4 as previously described). […] If not otherwise described cells were incubated with the TFDs for 4 days prior harvesting for qPCR evaluation of EZH2 levels or Senescence associated-β-Gal assay. As non specific control, a scramble sequence was used.

EZH2 [2] = assay: Western blot of EZH2 protein in melanoma cell lines; type: cell-based, human; settings: metastatic melanoma cell lines carrying or not B-RAF V600E; PGJ2 2 μM 3 days, Bay 11-7082 2 μM 4 days
Description: Western Blot: Twenty to thirty micrograms of total proteins were run on 12% SDS-polyacrylamide gel electrophoresis. After transfer to polyvinylidene fluoride membrane (Millipore), immunoblotting was performed according to Laemli method. Glyceraldehyde-3-phosphate dehydrogenase (GAPDH), β-Actin or ERK2 were used as loading controls. Membranes were then incubated with an enhanced chemiluminescence system (Amersham) and immunoreactive bands were visualized using the luminescent image analyzer Fujifilm LAS-4000 (GE Healthcare).

melanoma = settings: cited from earlier work
A375 melanoma cells = assay: Senescence associated-β-Gal assay; type: cell-based, human; settings: 4 days
Description: Senescence associated-β-Gal assay: Cells were washed then fixed for 15 min at RT and stained using the Senescence β-Galactosidase staining kit following manufacturer instruction (Cell Signaling, Beverly, Mass.). A blue color reflects the β-Gal activity.
as §2

EZH2 [3] = assay: EZH2 level in melanoma cells cultured from patients' metastases; type: cell-based, human; settings: melanoma cells from nine patients' metastases, PGJ2 2 μM 3 days / 1.5 μM 4 days
Description: Cell Culture: HEK293, Human A375 (CRL-1619), SK-Mel-28 (HTB-72) and MeWo (HTB-65) melanoma cell lines were purchased from American Tissue Culture Collection (Molsheim, France). Human primary melanoma cells were extracted from metastatic melanoma specimens that were obtained from the Department of Dermatology and the Biobank of the University hospital of Nice, France. All patients provided informed written consent. Biopsy was dissected and digested for 1-2 h with collagenase A (0.33 U/ml), dispase (0.85 U/ml) and Dnase I (144 U/ml) with rapid shaking at 37° C. Large debris were removed by filtration through a 70-μm cell strainer. Viable cells were obtained by Ficoll gradient centrifugation. […]
as §1, with “PCR reaction was carried on a Step One plus Real-Time PCR system (Applied Biosystems). All analyses were done in triplicate and melting curve analysis was performed to control for product quality and specificity.” left out, “Results are presented as mean±SEM relative to the control.” left out

Compound	NF-kB activity (NF-kB)	EZH2 mRNA (EZH2 [1])	EZH2 at protein level (EZH2 [2])	senescence / SA-β-Gal activity (A375 melanoma cells)	further results
Cc1ccc(S(=O)(=O)/C=C/C#N)cc1 [Bay 11-7082]	inhibition of NF-kB activity	marked decrease	decrease of EZH2 at protein level	–	–
Ipilimumab: anti-CTLA-4 antibody used for the treatment of melanoma	–	–	–	–	patients responding to treatment (melanoma; melanoma patients): 10%; overall survival (melanoma; stage 4 melanoma patients): increased the overall survival
TFD1: p52 decoy, double stranded DNA ODN: forward ATCGGGTCTCC (SEQ ID NO: 6), reverse GGAGAGCCCGAT (SEQ ID NO: 7) (DNA, backbone and methylation of C not given here)	–	–	–	induce senescence	–
CCCCC/C=C/C=C1/C(=O)C=C[C@@H]1C/C=C\CCCC(=O)O [PGJ2, 15-deoxy-delta12,14-Prostaglandin J2]	inhibition of NF-kB activity	marked decrease	decrease of EZH2 at protein level	–	start of effect on EZH2 mRNA (EZH2 [1]; A375, time and dose dependent (FIG. 1C)): ≤ 6 h; EZH2 protein level (EZH2 [3]): consistent decrease of EZH2
TFD4: p52 decoy, double stranded DNA ODN: forward ATCGGGGCTCACC (SEQ ID NO: 8), reverse GGTGAGCCCCGAT (SEQ ID NO: 9) (DNA, backbone and methylation of C not given here)	–	–	–	induce senescence	–
O=C(O)c1cc(/N=N/c2ccc(S(=O)(=O)Nc3ccccn3)cc2)ccc1O [sulfasalazine]	inhibition of NF-kB activity	marked decrease	decrease of EZH2 at protein level	–	–
